Test results published in patent publication US20160264570A1, “METHOD OF BLOCKING TRANSMISSION OF MALARIAL PARASITE” (THE UNITED STATES OF AMERICA, AS REPRESENTED BY THE …, priority 2013, published 2016).
Read-outs that look alike come from different tables or passages of the source.

Experiments:
[1] = system: P. falciparum strain 3D7 gametocytes; test: alamarBlue gametocyte viability assay, strain 3D7; conditions: for EC50: read-out: Gametocytocidal activity EC50
[2] = system: Asexual parasites of P. falciparum strain 3D7; test: SYBR Green viability assay on asexual parasites; type: cell-based, Plasmodium falciparum; conditions: for EC50: read-out: Activity against asexual parasites EC50
[3] = system: P. falciparum strain HB3 gametocytes; test: alamarBlue gametocyte viability assay, strain HB3; conditions: Plasmodium falciparum, HB3, read-out: HB3-IC50, Table 3; 11 concentrations, 1:3 dilution, three times
[4] = Plasmodium falciparum, 3D7, read-out: 3D7-IC50

Row | Compound | EC50 ([1]; Table 6) [nM] | EC50 ([2]; Table 6) [nM] | also measured
1 | O=c1ccc2cnc3ccc(-c4ccccc4)cc3c2n1-c1cccc(C(F)(F)F)c1 | 627 | 113 | –
2 | O=c1ccc2cnc3ccc(-c4ccncc4)cc3c2n1-c1cccc(C(F)(F)F)c1 | 246 | 92 | –
3 | Nc1ncc(-c2ccc3ncc4ccc(=O)n(-c5cccc(C(F)(F)F)c5)c4c3c2)cn1 | 40 | 22 | –
4 | O=c1ccc2cnc3ccc(-c4cccnc4)cc3c2n1-c1cccc(C(F)(F)F)c1 | 535 | 110 | –
5 | O=c1ccc2cnc3ccc(-c4cncnc4)cc3c2n1-c1cccc(C(F)(F)F)c1 | 942 | 475 | –
6 | CCn1c(=O)ccc2cnc3ccc(-c4ccc(N)nc4)cc3c21 | 1650 | 1270 | –
7 | CC(=O)Nc1ccc(-c2ccc3ncc4ccc(=O)n(-c5cccc(C(F)(F)F)c5)c4c3c2)cn1 | 114 | 106 | –
8 | Cc1nc(N)ncc1-c1ccc2ncc3ccc(=O)n(-c4cccc(C(F)(F)F)c4)c3c2c1 | 2260 | 1150 | –
9 | O=c1ccc2cnc3ccc(-c4ccc5[nH]ccc5c4)cc3c2n1-c1cccc(C(F)(F)F)c1 | 325 | 191 | –
10 | O=c1ccc2cnc3ccc(-c4ccc5[nH]ncc5c4)cc3c2n1-c1cccc(C(F)(F)F)c1 | 74 | 64 | –
11 | Nc1ccc(-c2ccc3ncc4ccc(=O)n(-c5cccc(C(F)(F)F)c5)c4c3c2)cc1 | 147 | 99 | –
12 | O=c1ccc2cnc3ccc(-c4cn[nH]c4)cc3c2n1-c1cccc(C(F)(F)F)c1 | 246 | 131 | –
13 | O=c1ccc2cnc3ccc(-c4ccc5[nH]cnc5c4)cc3c2n1-c1cccc(C(F)(F)F)c1 | 96 | 37 | –
14 | Cc1ccc(C(F)(F)F)cc1-n1c(=O)ccc2cnc3ccc(-c4ccc(N)nc4)cc3c21 | 65 | 44 | –
15 | Cc1cccc(-n2c(=O)ccc3cnc4ccc(-c5ccc(N)nc5)cc4c32)c1 | 19 | 23 | –
16 | Nc1ccc(-c2ccc3ncc4ccc(=O)n(-c5cccc(Cl)c5)c4c3c2)cn1 | 18 | 10 | –
17 | N#Cc1cccc(-n2c(=O)ccc3cnc4ccc(-c5ccc(N)nc5)cc4c32)c1 | 23 | 12 | –
18 | COc1cccc(-n2c(=O)ccc3cnc4ccc(-c5ccc(N)nc5)cc4c32)c1 | 137 | 95 | –
19 | Nc1ccc(-c2ccc3ncc4ccc(=O)n(-c5cccc(S(N)(=O)=O)c5)c4c3c2)cn1 | 295 | 82 | –
20 | Nc1ccc(-c2ccc3ncc4ccc(=O)n(-c5ccc(N6CCNCC6)c(C(F)(F)F)c5)c4c3c2)cn1 | 10 | 9 | –
21 | O=c1ccc2cnc3ccc(-c4cnc5ccccc5c4)cc3c2n1-c1cccc(C(F)(F)F)c1 | 2270 | 1180 | –
22 | Nc1ccc(-c2ccc3ncc4ccc(=O)n(CC5CCNCC5)c4c3c2)cn1 | 11500 | 6440 | –
23 | Nc1ccc(-c2ccc3ncc4ccc(=O)n(-c5ccccc5)c4c3c2)cn1 | 47 | 33 | –

Row | Compound | EC50 ([1]; Table 6) [nM] | EC50 ([2]; Table 6) [nM] | also measured
24 | O=c1ccc2cnc3ccc(N4CCNCC4)cc3c2n1-c1cccc(C(F)(F)F)c1 | 22000 | > 20000 | –
25 | O=c1ccc2cnc3ccc(C4=CCNCC4)cc3c2n1-c1cccc(C(F)(F)F)c1 | 18400 | 15700 | –
26 | CN(C)C(=O)c1cccc(-n2c(=O)ccc3cnc4ccc(-c5ccc(N)nc5)cc4c32)c1 | 1520 | 859 | –
27 | Nc1ccc(-c2ccc3ncc4ccc(=O)n(-c5cccc(Oc6ccccc6)c5)c4c3c2)cn1 | 2430 | 1670 | –
28 | CCOc1cccc(-n2c(=O)ccc3cnc4ccc(-c5ccc(N)nc5)cc4c32)c1 | 912 | 683 | –
29 | CN(C)c1ncc(-c2ccc3ncc4ccc(=O)n(-c5cccc(C(F)(F)F)c5)c4c3c2)cn1 | 3130 | 1950 | –
30 | Nc1ccc(-c2ccc3ncc4ccc(=O)n(C5CCNCC5)c4c3c2)cn1 | 2800 | 2370 | –
31 | Nc1ccc(-c2ccc3ncc4ccc(=O)n(C5CC5)c4c3c2)cn1 | 215 | 560 | –
32 | Nc1ccc(-c2ccc3ncc4ccc(=O)n(C5CCOCC5)c4c3c2)cn1 | 41 | 1340 | –
33 | Nc1ccc(-c2ccc3ncc4ccc(=O)n(C5CCCCC5)c4c3c2)cn1 | 676 | 707 | –
34 | Nc1ccc(-c2ccc3ncc4ccc(=O)n(C5CCCC5)c4c3c2)cn1 | 1260 | 882 | –
35 | O=c1ccc2cnc3ccc(-c4cccc(C(F)(F)F)c4)cc3c2n1-c1cccc(C(F)(F)F)c1 | 3380 | 4200 | –
36 | O=c1ccc2cnc3ccc(Br)cc3c2n1-c1cccc(C(F)(F)F)c1 | 4950 | 5580 | –
37 | Nc1cccc(-c2ccc3ncc4ccc(=O)n(-c5cccc(C(F)(F)F)c5)c4c3c2)c1 | 103 | 120 | –
38 | CN(C)c1cccc(-c2ccc3ncc4ccc(=O)n(-c5cccc(C(F)(F)F)c5)c4c3c2)c1 | 3290 | 3250 | –
39 | C=Cc1ccc2ncc3ccc(=O)n(-c4cccc(C(F)(F)F)c4)c3c2c1 | 4900 | 3240 | –
40 | NC(=O)c1ccc(-c2ccc3ncc4ccc(=O)n(-c5cccc(C(F)(F)F)c5)c4c3c2)cc1 | 1270 | 1060 | –
41 | N#Cc1cccc(-c2ccc3ncc4ccc(=O)n(-c5cccc(C(F)(F)F)c5)c4c3c2)c1 | 526 | 283 | –
42 | O=c1ccc2cnc3ccc(-c4ccc5sccc5c4)cc3c2n1-c1cccc(C(F)(F)F)c1 | 3210 | 1640 | –
43 | CS(=O)(=O)c1ccc(-c2ccc3ncc4ccc(=O)n(-c5cccc(C(F)(F)F)c5)c4c3c2)cc1 | 491 | 266 | –
44 | O=c1ccc2cnc3ccc(-c4ccc5nonc5c4)cc3c2n1-c1cccc(C(F)(F)F)c1 | 4520 | 1720 | –
45 | O=c1ccc2cnc3ccc(-c4ccc(N5CCCCC5)nc4)cc3c2n1-c1cccc(C(F)(F)F)c1 | 8090 | 4900 | –
46 | Cc1ccc(-c2ccc3ncc4ccc(=O)n(-c5cccc(C(F)(F)F)c5)c4c3c2)cn1 | 65 | 33 | –

Row | Compound | EC50 ([1]; Table 6) [nM] | EC50 ([2]; Table 6) [nM] | also measured
47 | NS(=O)(=O)c1ccc(-c2ccc3ncc4ccc(=O)n(-c5cccc(C(F)(F)F)c5)c4c3c2)cc1 | 303 | 384 | –
48 | CN(C)C(=O)c1ccc(-c2ccc3ncc4ccc(=O)n(-c5cccc(C(F)(F)F)c5)c4c3c2)cc1 | 1990 | 2080 | –
49 | O=c1ccc2cnc3ccc(-c4ccc(-c5ccccc5)cc4)cc3c2n1-c1cccc(C(F)(F)F)c1 | 19300 | 15000 | –
50 | Cc1ccc(-c2ccc3ncc4ccc(=O)n(-c5cccc(C(F)(F)F)c5)c4c3c2)cc1 | 794 | 372 | –
51 | O=c1ccc2cnc3ccc(-c4cncc(Cl)c4)cc3c2n1-c1cccc(C(F)(F)F)c1 | 8800 | 3590 | –
52 | O=c1ccc2cnc3ccc(-c4cccc(N5CCCC5)c4)cc3c2n1-c1cccc(C(F)(F)F)c1 | 16100 | 13300 | –
53 | O=C(c1ccc(-c2ccc3ncc4ccc(=O)n(-c5cccc(C(F)(F)F)c5)c4c3c2)cc1)N1CCNCC1 | 5570 | 7870 | –
54 | O=C(c1ccc(-c2ccc3ncc4ccc(=O)n(-c5cccc(C(F)(F)F)c5)c4c3c2)cc1)N1CCOCC1 | 22400 | 12000 | –
55 | O=c1ccc2cnc3ccc(-c4ccc(O)nc4)cc3c2n1-c1cccc(C(F)(F)F)c1 | 262 | 187 | –
56 | NS(=O)(=O)c1cccc(-c2ccc3ncc4ccc(=O)n(-c5cccc(C(F)(F)F)c5)c4c3c2)c1 | 342 | 128 | –
57 | O=C1NCCc2cc(-c3ccc4ncc5ccc(=O)n(-c6cccc(C(F)(F)F)c6)c5c4c3)ccc21 | 3170 | 1130 | –
58 | O=C1CCc2cc(-c3ccc4ncc5ccc(=O)n(-c6cccc(C(F)(F)F)c6)c5c4c3)ccc2N1 | 3170 | 1130 | –
59 | NCc1ccc2ncc3ccc(=O)n(-c4cccc(C(F)(F)F)c4)c3c2c1 | 281 | 163 | –
60 | CN(C)Cc1ccc2ncc3ccc(=O)n(-c4cccc(C(F)(F)F)c4)c3c2c1 | 666 | 242 | –
61 | CNC(=O)c1ccc(-c2ccc3ncc4ccc(=O)n(-c5cccc(C(F)(F)F)c5)c4c3c2)cc1 | 61 | 17 | –
62 | O=C1Cc2cc(-c3ccc4ncc5ccc(=O)n(-c6cccc(C(F)(F)F)c6)c5c4c3)ccc2N1 | 51 | 19 | –
63 | O=C1NCc2cc(-c3ccc4ncc5ccc(=O)n(-c6cccc(C(F)(F)F)c6)c5c4c3)ccc21 | 1790 | 517 | –
64 | CNc1ccc2oc(C[C@H]3O[C@@]4(CC[C@H]3C)O[C@H]([C@H](C)C(=O)c3ccc[nH]3)[C@H](C)C[C@H]4C)nc2c1C(=O)O [Calcimycin] | – | – | IC50 [1, 4]: 2640 nM; IC50 [3]: 5900 nM
65 | CCN(CC)Cc1nccn1-c1ccc([N+](=O)[O-])cc1C(=O)c1ccccc1Cl [Nizofenone] | – | – | IC50 [1, 4]: 23500 nM; IC50 [3]: 14800 nM
66 | CCC(=O)N1CCN(c2ccc(-n3c(=O)ccc4cnc5ccc(-c6cnc7ccccc7c6)cc5c43)cc2C(F)(F)F)CC1 [Torin 1, reference compound] | – | – | IC50 ([1]; read-out: IC50 against 3D7 gametocytes): 1600 nM; times less potent than Torin 2 against asexual parasites [2]: 78 times; IC50 ([2]; read-out: IC50 in viability assay using asexual parasites): 215 nM
67 | Nc1ccc(-c2ccc3ncc4ccc(=O)n(-c5cccc(C(F)(F)F)c5)c4c3c2)cn1 [drawing 333] | 18 | 6 | –
68 | Cn1c(=O)n(-c2cccc(C(F)(F)F)c2)c2c3cc(-c4cccc(C#N)c4)ccc3ncc21 [drawing 455] | – | – | EC50 ([1]; Table 7): 2820 nM; EC50 ([2]; Table 7): 546 nM
69 | Cn1c(=O)n(-c2cccc(C(F)(F)F)c2)c2c3cc(-c4cccc(C#N)c4)ccc3ncc21 [drawing 462] | – | – | EC50 ([1]; Table 7): 314 nM; EC50 ([2]; Table 7): 59 nM
